Assay results: patent US20050175599A1, “Process for producing substance” (Kyowa Hakko Kogyo Co., Ltd., priority 2001, published 2005)

Tested on: transformant cell line 503LCA500D (derived from CHO/DG44) producing chimeric anti-CCR4 antibody
Assay: Fed-batch culture of antibody-producing cells with Q10-containing feed medium (Example 3)
Type: cell-based, Chinese hamster
Details: for cumulative number of cells on the completion of culturing: Q10-free culture 3.94×10^7; for relative specific antibody production rate: Q10-free culture = 100%
Protocol: Lens culinaris agglutinin (hereinafter abbreviated as LCA) resistant cell line CHO-LCA, which is derived from Chinese hamster ovary cell line CHO/DG44, was prepared by the method described in WO 02/31140, and chimeric anti-CCR4 antibody expression vector pCANTEX 2160 (WO 01/64754) was transfected into this cell line. Then, amethotrexate (MTX)-resistant cell was selected for gene amplification to obtain transformant cell line 503LCA500D (FERM BP-8239) producing chimeric anti-CCR4 antibody. The following fed-batch culture was performed using this cell line 503LCA500D. 503LCA500D was deposited as FERM BP-8239 in International Patent Organism Depositary, National Institute of Advanced Industrial Science and Technology (AIST Tsukuba Central 6, 1-1-1 Higashi, Tsukuba, Ibaraki, Japan) as of Nov. 20, 2002.
The cells were inoculated in a 250-mL conical flask containing 50 mL of a serum-free medium. (EX-CELL 302 medium, manufactured by JRH Biosciences) to a cell density of 3×10^5 cells/mL, followed by spinner culture at 100 rpm at 37° C.
In Q10-added cultures, 0.5 mL or 1 mL of a health drink SANOMIT (manufactured by MSE Pharmazeutica GmbH) comprising Q10, water, glycerin, ethanol and lecithin was added to 20 mL of an animal-protein-material-free feed medium comprising amino acids (0.22 g/L L-alanine, 0.74 g/L L-arginine monohydrochloride, 0.22 g/LL-asparagine (anhydrous), 0.26 g/L L-aspartic acid, 0.8 g/L L-cystine dihydrochloride, 0.66 g/L L-glutamic acid, 7.34 g/L L-glutamine, 0.26 g/L glycine, 0.37 g/L L-histidine monohydrochloride dihydrate, 0.92 g/L L-isoleucine, 0.92 g/L L-leucine, 1.29 g/L L-lysine monohydrochloride, 0.26 g/L L-methionine, 0.58 g/L L-phenylalanine, 0.35 g/L L-proline, 0.37 g/L L-serine, 0.84 g/L L-threonine, 0.14 g/L L-tryptophan, 0.92 g/L L-tyrosine disodium dihydrate, and 0.83 g/LL-valine), vitamins (0.11 mg/L d-biotin, 0.035 g/L calcium D-pantothenate, 0.035 g/L choline chloride, 0.035 g/L folic acid, 0.063 g/L myo-inositol, 0.035 g/L niacin amide, 0.035 g/L pyridoxal hydrochloride, 0.0035 g/L riboflavin, 0.035 g/L thiamine hydrochloride, and 0.00011 mg/L cyanocobalamine), 0.0251 g/L ethanolamine, 0.314 g/L insulin, 8 g/L soybean hydrolysate HY-SOY (manufactured by Quest International), 0.05 g/L ethylenediaminetetraacetic acid ferric sodium salt (manufactured by Sigma-Aldrich Co.), and 2 mL cholesterol lipid concentrate (1,000×aqueous solution, manufactured by Invitrogen Corp.). The concentrations of Q10 in the feed media after addition of SANOMIT were 1,563 μmol/L and 3,125 μmol/L respectively. […]

## COC1=C(OC)C(=O)C(C/C=C(\C)CC/C=C(\C)CC/C=C(\C)CC/C=C(\C)CC/C=C(\C)CC/C=C(\C)CC/C=C(\C)CC/C=C(\C)CC/C=C(\C)CCC=C(C)C)=C(C)C1=O [Q10]
Q10-added culture 1, 121 to 393 μmol/L Q10 in the medium (SANOMIT in feed), fed-batch 13 days
  cumulative number of cells on the completion of culturing: 3.64×10^7 cells/mL×days
Q10-added culture 1, 121 to 393 μmol/L Q10 in the medium, fed-batch 13 days
  relative specific antibody production rate: 128.8%
Q10-added culture 2, 242 to 786 μmol/L Q10 in the medium (SANOMIT in feed), fed-batch 15 days
  cumulative number of cells on the completion of culturing: 2.00×10^7 cells/mL×days
Q10-added culture 2, 242 to 786 μmol/L Q10 in the medium, fed-batch 15 days
  relative specific antibody production rate: 149.1%
